From patent US10086028B2, “Method for treating vascular inflammation, improving skin beauty and improving male sexual function using ginseng berry” (AMOREPACIFIC CORPORATION, priority 2007, dated 2018)

Columns and labels:
PGE2 = experiment: LPS-induced inflammatory factor PGE2 in mouse blood; format: in vivo; details: mouse blood about 12 h after LPS, intra-abdominal
Experimental: Based on the experimental result in the cell level, the effect of controlling vascular inflammation of the ginseng berry extract was tested in an animal model. Mice were grouped into a non-treated group, an LPS-induced group, a group treated with the ginseng berry extract of Example 1 (50 μg/mL and 100 μg/mL), a group treated with the ginseng berry saponin concentrate of Example 2 (100 μg/mL), a group treated with the ginseng root extract of Comparative Example 1 (100 μg/mL) and groups treated with ginsenosides Rg1, Rg2, Rh1 or Re (10 μg/mL and 20 μg/mL), with 5 mice per each group.
100 mg of each test substance per kg body weight of mouse, diluted in saline solution (0.9% NaCl), was intra-abdominally injected three times from day 1 through day 3. 2 hours after the injection on day 3, LPS diluted in saline solution (1 μg/mL) was injected intra-abdominally at a concentration of about 4 mg per kg body weight of mouse to induce inflammation by inflammatory factors (PGE2, TNF-α and IL1-β). After approximately 12 hours, the abdomen of the mouse was cut open, and blood was taken from the artery of the heart and stored at […]. The blood was kept at room temperature for 30 minutes and, after centrifuge at 4° C. and 3,000 rpm for 10 minutes, the supernatant was kept at −20° C. Then, the inflammatory factors PGE2, TNF-α and IL1-β were identified by western blotting. Measurement was made twice and the mean value was calculated. The result is shown in Table 4 and FIG. 9 (PGE2 (ng/mL)), Table 5 and FIG. 10 (TNF-α (ng/mL)), and Table 6 and FIG. 11 (IL1-β (pg/mL)).

Cyclooxygenase-2 (COX-2) = experiment: Inhibition of UV-induced COX-2 biosynthesis in human fibroblasts (western blotting); format: cell-based; details: UVA 15 J/cm^2, 2nd day, relative to UV control; sample 10 μg/mL
Experimental: Human fibroblasts were cultured on a 12-well plate incubator to a concentration of 10^5 cells/well. Then, after irradiating UVA at 15 J/cm^2, the medium was replaced by one including the ginseng berry extract of Example 1 (0.1 μg/mL, 1 μg/mL and 10 μg/mL), the ginseng berry saponin concentrate of Example 2 (10 μg/mL), the ginseng root extract of Comparative Example 1 (0.1 μg/mL, 1 μg/mL and 10 μg/mL) or ginsenosides Rg1, Rg2, Rh1 or Re (10 μg/mL). On the 2nd day of culturing, the cells were harvested and the quantity of produced COX-2 was analyzed using western blotting. The result was calculated as a relative value with respect to the control group, which was irradiated with UV without treating with a test substance, using a densitometer.

[1] = test system: matrix metalloproteinase I (MMP-1); experiment: Inhibition of UVB-induced MMP-1 expression in human fibroblasts (ELISA); format: cell-based; details: UVB 40 mJ/cm^2, 2nd day, relative to UV control; sample 10 μg/mL
Experimental: Human fibroblasts were cultured on a 12-well plate incubator to a concentration of 10^5 cells/well. Then, after irradiating UVB at 40 mJ/cm^2, the medium was replaced by one including the ginseng berry extract of Example 1 (1 μg/mL and 10 μg/mL), the ginseng berry saponin concentrate of Example 2 (10 μg/mL), the ginseng root extract of Comparative Example 1 (10 μg/mL) or ginsenosides Rg1, Rg2, Rh1 or Re (10 μg/mL). 10 ng/mL TGF-β was used as a positive control substance. On the 2nd day of culturing, the cells were harvested and the quantity of produced matrix metalloproteinase I (MMP-1) was analyzed using ELISA. The result was calculated as a relative value with respect to the control group, which was irradiated with UV without treating with a test substance.

[2] = test system: Macrophages (Raw 264.7 cells); experiment: Inhibition of LPS-induced NO generation in macrophages (Griess reaction); format: cell-based; details: LPS 1 μg/mL
Experimental: Effect of inhibiting LPS-induced NO generation in macrophages was tested in order to confirm the effect of inhibiting vascular inflammation of the ginseng berry extract.
Macrophages (Raw 264.7 cells) were cultured in a medium containing 10% serum under the condition of 5% CO2. After culturing on a 96-well plate incubator to a concentration of 2×10^5 cells/well and stimulating with LPS (1 μg/mL), the cells were treated with the ginseng berry extract of Example 1 (50 μg/mL and 100 μg/mL), the ginseng berry saponin concentrate of Example 2 (100 μg/mL), the ginseng root extract of Comparative Example 1 (100 μg/mL) or ginsenosides Rg1, Rg2, Rh1 or Re (10 μg/mL and 20 μg/mL), respectively. After keeping the treated cells at 37° C. for 1 hour, the degree of NO generation was measured to compare the effect of inhibiting LPS-induced NO generation of the test substances. NO generation (μM) was measured using the Griess reaction [Minghetti, L. et al., 1991, Glia 19. 152-160]. Measurement was made twice and the mean value was calculated.

[3] = test system: human HaCaT keratinocytes; experiment: Antioxidative effect: removal of UV-generated ROS in HaCaT keratinocytes; format: cell-based; details: ROS generated by UV in HaCaT; sample 10 μg/mL (Trolox given as (10))
Text: Antioxidative effect of the ginseng berry extract was investigated by comparing the ability of removing reactive oxygen species (ROS) generated in human HaCaT keratinocytes by ultraviolet (UV) radiation.

[4] = test system: Tumor Necrosis Factor α (TNF-α); experiment: Inhibition of UV-induced TNF-α biosynthesis in human keratinocytes (ELISA); format: cell-based; details: UVB 30 mJ/cm^2, 6-24 hours, relative to UV control; sample 10 μg/mL
Experimental: Human keratinocytes were cultured on a 12-well plate incubator to a concentration of 10^5 cells/well. Then, after irradiating UVB at 30 mJ/cm^2, the medium was replaced by one including the ginseng berry extract of Example 1 (0.1 μg/mL, 1 μg/mL and 10 μg/mL), the ginseng berry saponin concentrate of Example 2 (10 μg/mL), the ginseng root extract of Comparative Example 1 (0.1 μg/mL, 1 μg/mL and 10 μg/mL) or ginsenosides Rg1, Rg2, Rh1 or Re (10 μg/mL). After 6-24 hours of culturing, the cells were harvested and the quantity of TNF-α was analyzed using ELISA (Pharmingen 555212). The result was calculated as a relative value with respect to the control group, which was irradiated with UV without treating with a test substance.

SMILES | PGE2, Mean ± standard deviation (PGE2; group (10 μg/mL)) | PGE2, Result 1 (PGE2; group (10 μg/mL)) | PGE2, Result 2 (PGE2; group (10 μg/mL)) | PGE2, Mean ± standard deviation (PGE2; group (20 μg/mL)) | PGE2, Result 1 (PGE2; group (20 μg/mL)) | PGE2, Result 2 (PGE2; group (20 μg/mL)) | COX-2 biosynthesis (%) (Cyclooxygenase-2 (COX-2)) | MMP-1 expression (%) [1] | NO generation relative to negative control (%) ([2]; sample 10 μg/mL) | NO generation, Mean ± standard deviation ([2]; sample 10 μg/mL) | NO generation, Result 1 ([2]; sample 10 μg/mL) | NO generation, Result 2 ([2]; sample 10 μg/mL) | NO generation relative to negative control (%) ([2]; sample 20 μg/mL) | NO generation, Mean ± standard deviation ([2]; sample 20 μg/mL) | NO generation, Result 1 ([2]; sample 20 μg/mL) | NO generation, Result 2 ([2]; sample 20 μg/mL) | Antioxidative effect (%) [3] | TNF-α biosynthesis (%) [4]
CC(C)=CCC[C@](C)(O[C@@H]1O[C@H](CO)[C@@H](O)[C@H](O)[C@H]1O)[C@H]1CC[C@]2(C)[C@@H]1[C@H](O)C[C@@H]1[C@@]3(C)CC[C@H](O)C(C)(C)[C@@H]3[C@@H](O[C@@H]3O[C@H](CO)[C@@H](O)[C@H](O)[C@H]3O)C[C@]12C [Rg1] | 6.32 ± 0.04 ng/mL | 6.29 ng/mL | 6.35 ng/mL | 6.26 ± 0.07 ng/mL | 6.31 ng/mL | 6.21 ng/mL | 95% | 98% | 101.2% | 16.83 ± 0.63 µM | 16.38 µM | 17.27 µM | 99.3% | 16.50 ± 1.06 µM | 15.75 µM | 17.25 µM | 2% | 98%
CC(C)=CCC[C@](C)(O)[C@H]1CC[C@]2(C)[C@@H]1[C@H](O)C[C@@H]1[C@@]3(C)CC[C@H](O)C(C)(C)[C@@H]3[C@@H](O[C@@H]3O[C@H](CO)[C@@H](O)[C@H](O)[C@H]3O[C@@H]3O[C@@H](C)[C@H](O)[C@@H](O)[C@H]3O)C[C@]12C [Rg2] | 6.15 ± 0.21 ng/mL | 6 ng/mL | 6.3 ng/mL | 6.09 ± 0.09 ng/mL | 6.15 ng/mL | 6.02 ng/mL | 97% | 90% | 100.3% | 16.68 ± 0.45 µM | 17.00 µM | 16.36 µM | 97.4% | 16.19 ± 0.01 µM | 16.18 µM | 16.19 µM | 1% | 101%
CC(C)=CCC[C@](C)(O)[C@H]1CC[C@]2(C)[C@@H]1[C@H](O)C[C@@H]1[C@@]3(C)CC[C@H](O)C(C)(C)[C@@H]3[C@@H](O[C@@H]3O[C@H](CO)[C@@H](O)[C@H](O)[C@H]3O)C[C@]12C [Rh1] | 6.13 ± 0.04 ng/mL | 6.15 ng/mL | 6.1 ng/mL | 5.46 ± 0.20 ng/mL | 5.6 ng/mL | 5.32 ng/mL | 99% | 90% | 89.4% | 14.86 ± 0.07 µM | 14.92 µM | 14.81 µM | 75.1% | 12.48 ± 0.26 µM | 12.29 µM | 12.66 µM | 3% | 98%
